Data on two compounds can be found in patent EP0006845A1, “Pharmaceutical composition comprising a 5-aroyl-1-C1-5 alkyl-pyrrole-2-acetic acid compound and acetaminophen or acetylsalicylic acid” (McNeilab, Inc., priority 1978, dated 1980).

Each structure is given as a SMILES string.

For assay [1], the system named is adjuvant arthritic rats. In words: adjuvant arthritis test, evaluation of bone degeneration (osteogenic changes) in the non-injected hind paw. The assay is classed as in vivo, female Wistar, Lewis rats. An excerpt:
(§1) The efficacy of the novel combination of this invention in inhibiting inflammation and osteogenic degeneration is particularly seen in the adjuvant arthritis test. […] The adjuvant arthritis test, a test in which adjuvant arthritis which results both in inflammation and osteogenic changes is induced by Mycobacterium butvricum and in which the effect of the test compounds on each effect can be Determined, is considered to be .most useful for evaluation of compounds which may be suitable for the treatment of rheumatoid arthritis and other arthritic diseases. The test procedure, in which the effect on inflammation is determined by paw volume changes and the effect on osteogenic changes is determined by microscopic observation, is described by Wong et al, in J. Pharmacol.Exp.Ther. 185, 127-138, 1973, and is employed in the present determination of the potentiation of the antiarthritic properties of 5-aroyl-l-loweralkyl-pyrrole-2-acetic acid derivatives by aspirin or acetaminophen.
(§2) Briefly, in this procedure, adjuvant arthritis is induced in female Wistar, Lewis rats (Charles River Breeding Laboratories. Inc., Wiimington, Mass.) weighing 160-190 gm by a single subcutaneous injection of 0.75 mg Mycobacterium butyricum (Difco) into the left hind paw. The non-injected hind paw remains a normal size for the first seven days. Swelling begins to appear in the non-injected paw of the first rats on Day 8. Using the paw volume determination technique (a technique in which rat paws are dippedin mercury to the hairline and the volume of displacement determined by a modified Van Arman mercury displacement method as described in the aforementioned paper of Wong et al), the time progress curve of volume changes in the non-injected (contralateral) paw is followed. […] The mean onset time for 100 rats is found to be 11.6 days with a standard deviation of 1.9 days and the frequency of onset time values distributed normally between Days 8 and 19. Thus, determinations of antiarthritic activity are made in the period Day 11 to Day 28.
(§3) For determination of anti-inflammatory properties two different evaluations are made: (a) the evaluation of paw volume during the Phase II and Phase III periods and, (b) the evaluation of osteogenic (bone) degenration during the Phase IV period.
For evaluation of bone degenerations, normal and adjuvant arthritic rats are sacrificed under C02, after the paw volume measurements have been completed on Day 28. The hind legs are removed above the knees and skinned and the soft tissues dissected away with care to avoid injury to bone and articular structures. The leg bones are then immersed in 2 percent potassium hydroxide solution for approximately four to five days until the remaining soft tissues becomes properly macerated and/or transparent, and the bones are fully visible. The leg bones are stained with Alizarin Red (0.01 percent in 2 percent KOH) for eight hours, and then processed through increasing concentrations of glycerol in water (20, 40, 60, 80 and 100 percent) for purposes of clearing the tissues for microscopic observation. The distal end of the tibiae, the tarsals, metatarsals, phalanges, and sesamoids are evaluated under a Stereozoom Microscope (a special type of dissecting microscope, product of Bausch and Lomb).
Osteogenic changes for each bone (in 31 bone categories) in the non-injected hind paw are graded on a scale of from 0 to 10 (increasing numerical value corresponding to increasing severity of bone degeneration). A total bone degeneration score is obtained (maximum score/paw = 310 points) and then expressed as a percent score. The mean percent score (95 percent confidence limits) for saline control groups from 26 experiments (184 animals) is found to be 53.4 (50.9-55.9). Percent score values for drug treated animals are expressed as a percent inhibition relative to the mean for the saline control group. Data is evaluated statistically and ED50 values with 95 percent confidence limits are calculated.

The test system of assay [2] is adjuvant arthritic rats. In words: adjuvant arthritis test, evaluation of paw volume of the non-injected hind paw. The conditions noted are these: for inhibition at 75 mg/kg: Aspirin 75 mg/kg/day alone; for inhibition at 150 mg/kg: Aspirin 150 mg/kg/day alone; for inhibition at 300 mg/kg: Aspirin 300 mg/kg/day alone. The class given is in vivo, female Wistar, Lewis rats.
Description: as §1, §2, §3
For evaluation of paw volume, adjuvant arthritic rats with early but significant signs of arthritis in the contralateral paw are selected on Day 11 and randomly assigned to the various groups of 10 animals in each group. All test -animals are dosed-daily (per os) with the test compound, preferably as sodium salt, or in saline for 17 days (Days 11 to 27 inclusive). Control animals are dosed with an equivalent volume of saline. The paw volumes of the non-injected paws are determined initially on Day 11 and again on Days 15, 18, 22, 25, and 28. The paw volumes are then compared with normal paw volumes of adjuvant arthitic rats previously determined from a reference curve relating normal paw volume to body weight. The volume of each individual rat which is greater than the normal volume is utilized in the analysis of the data. Values for drug treated animals are expressed as a percent inhibition of the paw volume change relative to the mean value for saline controls. Data is evaluated statistically and ED50 values with 95 percent confidence limits are calculated. The method for statistical analysis is described in detail in the aforementioned paper of Wong et al. The term "ED50" refers to the dose of drug required to produce 50 percent antagonism of the paw volume changes observed in the saline treated adjuvant arthritis controls. Suppression of paw volume changes reflects anti-inflammatory and antiarthritic activity of a test drug.

[3] abbreviates: Rattus norvegicus, drug alone, suppression of osteogenic changes, data from several experiments pooled, read-out: ED50 and 95 percent C.L.
Where [4] appears, read: Rattus norvegicus, 672 h, Day 28, read-out: Percent Inhibition ± S.E. (Day 28).
Where [5] appears, read: Rattus norvegicus, 672 h, Table VIII, Day 28, read-out: Percent Inhibition ± S.E. (Day 28).

By ED50 is commonly meant the midpoint of the dose-response relation.

For the compound `Cc1ccc(C(=O)c2ccc(CC(=O)O)n2C)cc1` [Tolmetin, 1-methyl-5-p-toluoyl-pyrrole-2-acetic acid], the inhibition at 7.5 mg/kg worked out at 18.6 ± 6.9% in the assay with adjuvant arthritic rats [1] (Rattus norvegicus, Tolmetin 7.5 mg/kg/day alone, read-out: Percent Inhibition of Bone Degeneration ± S.E.) and 37.8 ± 8.8% with adjuvant arthritic rats [2] (Rattus norvegicus, Tolmetin 7.5 mg/kg/day alone, read-out: Percent Inhibition of Paw Volume ± S.E.). Besides, the inhibition at 30 mg/kg with adjuvant arthritic rats [1] (Rattus norvegicus, Tolmetin 30.0 mg/kg/day alone, read-out: Percent Inhibition of Bone Degeneration ± S.E.) was 26.3 ± 3.7%; in the assay on adjuvant arthritic rats [2] (Rattus norvegicus, Tolmetin 30.0 mg/kg/day alone, read-out: Percent Inhibition of Paw Volume ± S.E.) it was 49.3 ± 9.7%. Moreover, the inhibition at 120 mg/kg in the assay on adjuvant arthritic rats [1] (Rattus norvegicus, Tolmetin 120.0 mg/kg/day alone, read-out: Percent Inhibition of Bone Degeneration ± S.E.) is 51.7 ± 6.4%; with adjuvant arthritic rats [2] (Rattus norvegicus, Tolmetin 120.0 mg/kg/day alone, read-out: Percent Inhibition of Paw Volume ± S.E.) it was 78.4 ± 3%. Besides, the inhibition at 5.6 mg/kg in the assay with adjuvant arthritic rats [1] (Rattus norvegicus, bone degeneration, Tolmetin 5.6 mg/kg/day alone, read-out: Percent Inhibition ± S. E.) worked out at 26.6 ± 7%; in the assay on adjuvant arthritic rats [2] (Rattus norvegicus, 672 h, Tolmetin 5.6 mg/kg/day alone, Day 28, read-out: Percent Inhibition ± S.E. (Day 28)) it was 30.5 ± 5.1%. The inhibition at 11.1 mg/kg was found to be 28.7 ± 7.7% in the assay with adjuvant arthritic rats [1] (Rattus norvegicus, bone degeneration, Tolmetin 11.1 mg/kg/day alone, read-out: Percent Inhibition ± S. E.) and 34.5 ± 8% in the assay with adjuvant arthritic rats [2] (Rattus norvegicus, 672 h, Tolmetin 11.1 mg/kg/day alone, Day 28, read-out: Percent Inhibition ± S.E. (Day 28)). Moreover, the inhibition at 16.7 mg/kg with adjuvant arthritic rats [1] (Rattus norvegicus, bone degeneration, Tolmetin 16.7 mg/kg/day alone, read-out: Percent Inhibition ± S. E.) turned out to be 27.5 ± 4.9%; with adjuvant arthritic rats [2] (Rattus norvegicus, 672 h, Tolmetin 16.7 mg/kg/day alone, Day 28, read-out: Percent Inhibition ± S.E. (Day 28)), 58.4 ± 8.1%. Further, the inhibition at 33.3 mg/kg was found to be 33.4 ± 3.9% in the assay on adjuvant arthritic rats [1] (Rattus norvegicus, bone degeneration, Tolmetin 33.3 mg/kg/day alone, read-out: Percent Inhibition ± S. E.) and 50.8 ± 8.4% in the assay with adjuvant arthritic rats [2] (Rattus norvegicus, 672 h, Tolmetin 33.3 mg/kg/day alone, Day 28, read-out: Percent Inhibition ± S.E. (Day 28)). Further, the inhibition at 50 mg/kg stood at 34.9 ± 2.7% with adjuvant arthritic rats [1] (Rattus norvegicus, bone degeneration, Tolmetin 50.0 mg/kg/day alone, read-out: Percent Inhibition ± S. E.) and 62.6 ± 2.7% with adjuvant arthritic rats [2] (Rattus norvegicus, 672 h, Tolmetin 50 mg/kg/day alone, Day 28, read-out: Percent Inhibition ± S.E. (Day 28)). Also, the inhibition at 100 mg/kg with adjuvant arthritic rats [1] (Rattus norvegicus, bone degeneration, Tolmetin 100 mg/kg/day alone, read-out: Percent Inhibition ± S. E.) is 54.2 ± 1.9%; in the assay with adjuvant arthritic rats [2] (Rattus norvegicus, 672 h, Tolmetin 100 mg/kg/day alone, Day 28, read-out: Percent Inhibition ± S.E. (Day 28)) it was 66.4 ± 3.9%. The ED50 in the assay on adjuvant arthritic rats [1] (Rattus norvegicus, Table III, ED50 of tolmetin without acetaminophen, read-out: ED50 values) came out at 110 mg/kg; in the assay with adjuvant arthritic rats [1] (Rattus norvegicus, Table V, ED50 of tolmetin without Aspirin, read-out: ED50), 89.7 mg/kg; in the assay on adjuvant arthritic rats [1] (setting [3]), 110 mg/kg; with adjuvant arthritic rats [2] (Rattus norvegicus, 672 h, Table IV, ED50 of tolmetin without Aspirin, Day 28, read-out: ED50), 32 mg/kg; in the assay on adjuvant arthritic rats [2] (Rattus norvegicus, Table II, tolmetin without acetaminophen, read-out: ED50 values of Tolmetin) it was 32 mg/kg; in the assay on adjuvant arthritic rats [2] (Rattus norvegicus, po, 360 h, drug given alone per os, Day 15, read-out: ED50 Values and 95 Percent C.L.) it was 42.1 mg/kg. Moreover, the 50% effective dose (ED50) in the assay with adjuvant arthritic rats [2] (Rattus norvegicus, po, 432 h, drug given alone per os, Day 18, read-out: ED50 Values and 95 Percent C.L.) worked out at 40.6 mg/kg; in the assay on adjuvant arthritic rats [2] (Rattus norvegicus, po, 528 h, drug given alone per os, Day 22, read-out: ED50 Values and 95 Percent C.L.), 32.4 mg/kg; in the assay on adjuvant arthritic rats [2] (Rattus norvegicus, po, 600 h, drug given alone per os, Day 25, read-out: ED50 Values and 95 Percent C.L.), 29.5 mg/kg; in the assay with adjuvant arthritic rats [2] (Rattus norvegicus, po, 672 h, drug given alone per os, Day 28, read-out: ED50 Values and 95 Percent C.L.) it was 26.4 mg/kg. For the same compound, the “ED50 Values and 95 Percent C.L.” value in the assay on adjuvant arthritic rats [2] (drug given alone per os, Day 28, 40320 min) is on record as 26.4 (22.3 - 29.6) mg/kg/day.
`CC(=O)Oc1ccccc1C(=O)O` [Aspirin, acetylsalicylic acid]: the inhibition at 25 mg/kg amounted to 15.2 ± 12.6% in the assay with adjuvant arthritic rats [1] (Rattus norvegicus, bone degeneration, Aspirin 25 mg/kg/day alone, read-out: Percent Inhibition ± S. E.) and 16.4 ± 11.4% in the assay on adjuvant arthritic rats [2] (Rattus norvegicus, 672 h, Aspirin 25 mg/kg/day alone, Day 28, read-out: Percent Inhibition ± S.E. (Day 28)). The inhibition at 75 mg/kg in the assay on adjuvant arthritic rats [1] (Rattus norvegicus, bone degeneration, Aspirin 75 mg/kg/day alone, read-out: Percent Inhibition ± S. E.) worked out at 29.5 ± 5.6%; in the assay with adjuvant arthritic rats [2] (setting [4]), 39.6 ± 3.6%; in the assay with adjuvant arthritic rats [2] (setting [5]), 4.1 ± 14.4%. Besides, the inhibition at 100 mg/kg is 28.3 ± 8.2% in the assay on adjuvant arthritic rats [1] (Rattus norvegicus, bone degeneration, Aspirin 100 mg/kg/day alone, read-out: Percent Inhibition ± S. E.) and 28.3 ± 8.2% in the assay with adjuvant arthritic rats [2] (Rattus norvegicus, 672 h, Aspirin 100 mg/kg/day alone, Day 28, read-out: Percent Inhibition ± S.E. (Day 28)). Besides, the inhibition at 150 mg/kg in the assay with adjuvant arthritic rats [1] (Rattus norvegicus, bone degeneration, Aspirin 150 mg/kg/day alone, read-out: Percent Inhibition ± S. E.) was found to be 22.9 ± 3.1%; in the assay on adjuvant arthritic rats [2] (setting [4]), 34.2 ± 6%; with adjuvant arthritic rats [2] (setting [5]), 33.2 ± 7.6%. The inhibition at 300 mg/kg with adjuvant arthritic rats [1] (Rattus norvegicus, bone degeneration, Aspirin 300 mg/kg/day alone, read-out: Percent Inhibition ± S. E.) is 59.9 ± 5.4%; with adjuvant arthritic rats [2] (setting [4]), 66.2 ± 6.3%; with adjuvant arthritic rats [2] (setting [5]), 28.9 ± 9.4%. Moreover, the 50% effective dose (ED50) with adjuvant arthritic rats [1] (setting [3]) stood at 382 mg/kg; with adjuvant arthritic rats [2] (Rattus norvegicus, aspirin alone, data from several similar experiments pooled, read-out: ED50 and its 95 percent C.L.), 322 mg/kg. In addition, in the assay on adjuvant arthritic rats [1] (bone degeneration, Aspirin 25 mg/kg/day alone), the “Percent Inhibition ± S. E.” value is listed as 20.1 ± 5.2%. The “dose of Aspirin required to suppress the tolmetin ED50 by 50 percent” value in the assay with adjuvant arthritic rats [2] (Aspirin given in combination with tolmetin) is on record as 83.6 (60.5 - 101) mg/kg/day.
